Laboratory results published in ChEMBL document CHEMBL2390858, “Design, synthesis and anti-tuberculosis activity of 1-adamantyl-3-heteroaryl ureas with improved in vitro pharmacokinetic properties” (Bioorg Med Chem, 2013).
Converted amounts (≈) assume the structure as drawn.

How the values were obtained:
Proteus vulgaris = assay: microbe, parasite or virus in culture
Streptococcus pyogenes = assay: microbe, parasite or virus in culture
Klebsiella pneumoniae = assay: microbe, parasite or virus in culture
Staphylococcus aureus [1] = assay: microbe, parasite or virus in culture; conditions: ATCC 29213
[2] = system: Mycobacterium tuberculosis; assay: microbe, parasite or virus in culture; conditions: H37Rv, 168 h
Burkholderia cepacia = assay: microbe, parasite or virus in culture
Bacillus anthracis = assay: microbe, parasite or virus in culture; conditions: Sterne
Acinetobacter = assay: microbe, parasite or virus in culture
Escherichia coli = assay: microbe, parasite or virus in culture; conditions: K-12
Bacillus subtilis = assay: microbe, parasite or virus in culture
Proteus mirabilis = assay: microbe, parasite or virus in culture
[3] = target: T1, Bifunctional epoxide hydrolase 2 (Homo sapiens, UniProt P34913)
T1 sequence (P34913 whole entry): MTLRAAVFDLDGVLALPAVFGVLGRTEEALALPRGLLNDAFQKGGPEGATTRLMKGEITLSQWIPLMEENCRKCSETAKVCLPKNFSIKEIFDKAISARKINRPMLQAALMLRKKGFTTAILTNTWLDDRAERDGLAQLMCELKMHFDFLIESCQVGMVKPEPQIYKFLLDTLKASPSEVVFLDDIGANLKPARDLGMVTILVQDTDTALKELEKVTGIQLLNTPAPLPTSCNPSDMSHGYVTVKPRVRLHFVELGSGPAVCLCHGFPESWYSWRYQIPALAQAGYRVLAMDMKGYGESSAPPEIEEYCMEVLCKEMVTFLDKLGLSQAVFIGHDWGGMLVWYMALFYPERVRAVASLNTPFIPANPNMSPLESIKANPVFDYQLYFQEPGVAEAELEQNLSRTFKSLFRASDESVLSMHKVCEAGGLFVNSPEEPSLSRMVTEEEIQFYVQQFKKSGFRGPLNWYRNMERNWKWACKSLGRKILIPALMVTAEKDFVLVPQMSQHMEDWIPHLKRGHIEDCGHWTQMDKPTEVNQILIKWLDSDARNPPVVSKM

Staphylococcus aureus [4] = assay: microbe, parasite or virus in culture; conditions: NRS70
Vero = assay: cells; conditions: Chlorocebus sabaeus, 72 h
Enterococcus faecalis = assay: microbe, parasite or virus in culture
Pseudomonas aeruginosa = assay: microbe, parasite or virus in culture
Streptococcus pneumoniae = assay: microbe, parasite or virus in culture
[5] = buffer, 18 h, pH 7.4

Row | SMILES | MIC (Proteus vulgaris) [µg/mL] | MIC (Streptococcus pyogenes) [µg/mL] | MIC (Klebsiella pneumoniae) [µg/mL] | MIC (Staphylococcus aureus [1]) [µg/mL] | MIC [2] [µg/mL] | MIC (Burkholderia cepacia) [µg/mL] | MIC (Bacillus anthracis) [µg/mL] | MIC (Acinetobacter) [µg/mL] | MIC (Escherichia coli) [µg/mL] | MIC (Bacillus subtilis) [µg/mL] | MIC (Proteus mirabilis) [µg/mL] | IC50 [3] [nM] | MIC (Staphylococcus aureus [4]) [µg/mL] | IC50 (Vero) [µg/mL] | MIC (Enterococcus faecalis) [µg/mL] | MIC (Pseudomonas aeruginosa) [µg/mL] | MIC (Streptococcus pneumoniae) [µg/mL] | solubility [5] [µg/mL]
1 | CCCn1nc(NC(=O)NC23CC4CC(CC(C4)C2)C3)cc1C | > 200 | > 200 | > 200 | > 200 | 1.56 (≈ 4.93 µM) | > 200 | > 200 | > 200 | > 200 | > 200 | > 200 | 751 | > 200 | 26 (≈ 82.2 µM) | > 200 | > 200 | > 200 | –
2 | O=C(Nc1nnc(C2CC2)o1)NC1C2CC3CC(C2)CC1C3 (configuration not stated) | > 200 | > 200 | > 200 | 200 (≈ 661 µM) | 3.13 (≈ 10.4 µM) | 200 (≈ 661 µM) | > 200 | > 200 | > 200 | > 200 | > 200 | 2410 | > 200 | 180 (≈ 595 µM) | > 200 | > 200 | > 200 | –
3 | CCn1nc(NC(=O)NC2C3CC4CC(C3)CC2C4)cc1C (configuration not stated) | > 200 | > 200 | > 200 | 100 (≈ 331 µM) | 3.13 (≈ 10.3 µM) | > 200 | > 200 | > 200 | > 200 | > 200 | > 200 | 2460 | > 200 | 163 (≈ 539 µM) | > 200 | > 200 | > 200 | –
4 | Cc1csc(NC(=O)NC2C3CC4CC(C3)CC2C4)n1 (configuration not stated) | > 200 | 200 (≈ 686 µM) | > 200 | 200 (≈ 686 µM) | 1.56 (≈ 5.35 µM) | > 200 | > 200 | > 200 | > 200 | > 200 | > 200 | 710 | 100 (≈ 343 µM) | 60 (≈ 206 µM) | > 200 | > 200 | 100 (≈ 343 µM) | –
5 | O=C(Nc1nccs1)NC12CC3CC(CC(C3)C1)C2 | > 200 | > 200 | > 200 | > 200 | 3.13 (≈ 11.3 µM) | > 200 | > 200 | > 200 | > 200 | > 200 | > 200 | 83 | > 200 | 22 (≈ 79.3 µM) | > 200 | > 200 | 100 (≈ 360 µM) | –
6 | COc1ccc(NS(=O)(=O)c2ccc(NC(=O)NC34CC5CC(CC(C5)C3)C4)cc2)nn1 | 200 (≈ 437 µM) | > 200 | > 200 | 200 (≈ 437 µM) | 25 (≈ 54.6 µM) | 200 (≈ 437 µM) | 50 (≈ 109 µM) | > 200 | 200 (≈ 437 µM) | 200 (≈ 437 µM) | 100 (≈ 219 µM) | 7 | 100 (≈ 219 µM) | – | 200 (≈ 437 µM) | > 200 | 100 (≈ 219 µM) | 14.1 (≈ 30.8 µM)
7 | Cc1cc(NS(=O)(=O)c2ccc(NC(=O)NC34CC5CC(CC(C5)C3)C4)cc2)no1 | > 200 | > 200 | > 200 | > 200 | 25 (≈ 58.1 µM) | > 200 | > 200 | > 200 | > 200 | > 200 | > 200 | 292 | 50 (≈ 116 µM) | – | > 200 | > 200 | > 200 | 2 (≈ 4.65 µM)
8 | O=C(Nc1ncncn1)NC12CC3CC(CC(C3)C1)C2 | > 200 | > 200 | > 200 | > 200 | 125 (≈ 457 µM) | > 200 | > 200 | > 200 | > 200 | > 200 | > 200 | 79 | > 200 | – | > 200 | > 200 | > 200 | 7.2 (≈ 26.3 µM)
9 | Cc1cc(NC(=O)NC23CC4CC(CC(C4)C2)C3)on1 | > 200 | > 200 | > 200 | 200 (≈ 726 µM) | 12.5 (≈ 45.4 µM) | 100 (≈ 363 µM) | > 200 | > 200 | 200 (≈ 726 µM) | > 200 | > 200 | 117 | > 200 | – | 100 (≈ 363 µM) | > 200 | > 200 | 5.5 (≈ 20 µM)
10 | Cn1cc(NC(=O)NC23CC4CC(CC(C4)C2)C3)cn1 | > 200 | > 200 | > 200 | > 200 | 50 (≈ 182 µM) | > 200 | > 200 | > 200 | > 200 | > 200 | > 200 | 488 | > 200 | – | > 200 | > 200 | > 200 | 41.1 (≈ 150 µM)
11 | O=C(Nc1nnc(C2CCC2)o1)NC12CC3CC(CC(C3)C1)C2 | > 200 | 100 (≈ 316 µM) | > 200 | 50 (≈ 158 µM) | 12.5 (≈ 39.5 µM) | > 200 | 25 (≈ 79 µM) | > 200 | > 200 | 50 (≈ 158 µM) | > 200 | 241 | 50 (≈ 158 µM) | – | 100 (≈ 316 µM) | > 200 | 100 (≈ 316 µM) | 10.5 (≈ 33.2 µM)
